Results on seven compounds are retold here after patent US7998981B2, “Aminoaryl sulphonamide derivatives as functional 5-HT6 ligands” (Suven Life Sciences Limited, priority 2005, dated 2011).

The target in experiment [1] is T1, Human 5-HT6 Receptor (Homo sapiens, UniProt P50406).
T1 construct: host or cells: HEK293
Briefly: Nova Screen binding assay for human 5-HT6 receptor ([3H]LSD radioligand binding). The settings on record: human recombinant receptor expressed in HEK293 cells, [3H]LSD 1.5 nM; for inhibition at 0.1 µM: read-out: % Inhibition at 100 nM, radioligand binding data at 5ht6R (h); for Ki: 60 minutes at 37° C., read-out: Ki, radioligand binding data at 5ht6R (h). As for the experimental part:
Nova Screen Binding Assay for Human 5-HT6 Receptor
Pharmacological data Compounds can be tested according to the following the procedures.
Receptor source: Human recombinant expressed in HEK293 cells
Radioligand: [^3H]LSD (60-80 Ci/mmol)
Final ligand concentration—[1.5 nM]
Non-specific determinant: Methiothepin mesylate—[0.1 μM]
Reference compound: Methiothepin mesylate
Positive control: Methiothepin mesylate
Incubation conditions: Reactions were carried out in 50 mM TRIS-HCl (pH 7.4) containing 10 mM MgCl2, 0.5 mM EDTA for 60 minutes at 37° C. The reaction was terminated by rapid vacuum filtration onto glass fiber filters. Radioactivity trapped onto the filters was determined and compared to control values in order to ascertain any interactions of test compound(s) with the cloned serotonin -5HT6 binding site.
Literature Reference: Monsma F. J. Jr., et al., Molecular Cloning and Expression of Novel Serotonin Receptor with High Affinity for Tricyclic Psychotropic Drugs. Mol. Pharmacol. (43): 320-327 (1993).

In experiment [2] the test system is Male Wistar rats. Briefly: Object recognition task model. The class given is in vivo, rat. The settings on record: orally or i.p. one hour before T1 and T2; T2 24 hour after T1; example 6 at 10 mg/Kg orally (FIG. 1). As for the experimental part:
Object Recognition Task Model
The cognition-enhancing properties of compounds of this invention were estimated using a model of animal cognition: the object recognition task model.
Male wistar rats (230-280 g) obtained from N I.N. (National Institute of Nutrition, Hyderabad, India) were used as an experimental animal. Four animals were housed in each cage. Animals were kept on 20% food deprivation before one day and given water ad libitum throughout the experiment, and maintained on a 12 h light/dark cycle. Also the rats were habituated to individual arenas for 1 hour in absence of any objects.
One group of 12 rats received vehicle (1 mL/Kg) orally and another set of animals received compound of the formula (I) either orally or i.p., before one hour of the familiar (T1) and choice trial (T2). The experiment was carried out in a 50×50×50 Cm open field made up of acrylic. In the familiarization phase, (T1), the rats were placed individually in the open field for 3 min., in which two identical objects (plastic bottles, 12.5 Cm height×5.5 Cm diameter) covered in yellow masking tape alone (a1 and a2) were positioned in two adjacent corners, 10 Cm. from the walls. After 24 hour of the (T1) trial for long-term memory test, the same rats were placed in the same arena as they were placed in T1 trial. […]

Experiment [3] relates to Adult male Wistar rats. Briefly: Passive avoidance (single-trial, step through, light-dark paradigm). The class given is in vivo, rat. The settings on record: 10 mg/Kg oral dose; recall 24 h, 72 h and 7 day post-training (FIG. 2). The source says:
Passive Avoidance Apparatus Animals were trained in a single-trial, step through, light-dark passive avoidance paradigm. The training apparatus consisted of a chamber 300 mm in length, 260 mm wide, and 270 mm in height, constructed to established designs. The front and top were transparent, allowing the experimenter to observe the behavior of the animal inside the apparatus. The chamber was divided into two compartments, separated by a central shutter that contained a small opening 50 mm wide and 75 mm high set close to the front of the chamber. The smaller of the compartments measured […] in width and contained a low-power (6V) illumination source. The larger compartment measured 210 mm in width and was not illuminated. […] A resistance range of […] was calculated for a control group of rats and the apparatus was calibrated accordingly. […] Latency to enter the dark chamber was recorded (usually <20 s), and having completely entered the dark compartment an inescapable foot shock of 0.75 mA for 3 s was administered to the animal. […] Recall of this inhibitory stimulus was evaluated 24 h, 72 h and on 7 day post-training by returning the animal into the light chamber and recording their latency to enter the dark chamber, a criterion time of 300 s was employed.

T1 sequence (P50406 whole entry): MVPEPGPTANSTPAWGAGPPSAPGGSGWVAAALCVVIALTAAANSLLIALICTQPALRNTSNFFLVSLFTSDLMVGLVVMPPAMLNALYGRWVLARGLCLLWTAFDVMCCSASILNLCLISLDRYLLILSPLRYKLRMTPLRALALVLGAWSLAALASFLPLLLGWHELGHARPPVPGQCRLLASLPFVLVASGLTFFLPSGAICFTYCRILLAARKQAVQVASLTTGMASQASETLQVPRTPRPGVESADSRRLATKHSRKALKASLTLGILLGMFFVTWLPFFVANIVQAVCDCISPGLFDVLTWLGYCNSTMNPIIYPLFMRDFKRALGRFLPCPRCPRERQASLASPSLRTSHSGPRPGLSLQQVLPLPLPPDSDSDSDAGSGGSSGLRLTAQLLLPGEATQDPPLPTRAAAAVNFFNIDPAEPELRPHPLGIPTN

The inhibition is the change of the read-out against control, counted positive when it falls. The term Ki denotes the dissociation constant of the complex between target and ligand, obtained from inhibition or displacement. Consider `CN1CCC(Nc2cccc(S(=O)(=O)n3ccc4ccccc43)c2)CC1` [Example 1, 1-[3-(1-Methylpiperidin-4-yl)amino]benzenesulfonyl-1H-indole], for which, in experiment [1] (100 nM), the inhibition at 0.1 µM was 96.8%. Besides, the Ki in experiment [1] was 3.19 nM.

In the case of `COc1ccc2c(ccn2S(=O)(=O)c2cccc(NC3CCN(C)CC3)c2)c1` [Example 2, 1-[3-(1-Methylpiperidin-4-yl)amino]benzenesulfonyl-5-methoxyindole], in experiment [1] (100 nM), the inhibition at 0.1 µM came out at 82.2%. Also, in experiment [1], the Ki came to 12.5 nM.

As for `CN1CCC(Nc2cccc(S(=O)(=O)n3ccc4cc(Br)ccc43)c2)CC1` [Example 4, 1-[3-(1-Methylpiperidin-4-yl)amino]benzenesulfonyl-5-bromoindole], in experiment [1] (100 nM), the inhibition at 0.1 µM was found to be 92.2%. Also, in experiment [1], the Ki worked out at 10.3 nM.

Turning to `CN1CCC(Nc2cccc(S(=O)(=O)n3ccc4cc(F)ccc43)c2)CC1` [Example 6, 1-[3-(1-Methylpiperidin-4-yl)amino]benzenesulfonyl-5-fluoroindole], the inhibition at 0.1 µM in experiment [1] (100 nM) turned out to be 93.2%. Moreover, the Ki in experiment [1] was found to be 7 nM. Moreover, the “novel object recognition (exploration time with novel object, discrimination index)” value in experiment [2] is “positive effects”. Moreover, the “latency to reach the dark zone” value in experiment [3] is reported as “significant increase in latency”.

With `COc1ccc2c(ccn2S(=O)(=O)c2ccc(C)c(NC3CCN(C)CC3)c2)c1` [Example 10, 1-[3-(1-Methylpiperidin-4-yl)amino-4-methyl]benzenesulfonyl-5-methoxyindole], in experiment [1] (100 nM), the inhibition at 0.1 µM came out at 85.3%. Besides, in experiment [1], the Ki is 20.9 nM.

On to `COc1ccc(S(=O)(=O)n2ccc3ccccc32)cc1NC1CCN(C)CC1` [Example 17, 1-[3-(1-Methylpiperidin-4-yl)amino-4-methoxy]benzenesulfonyl-1H-indole], for which, in experiment [1] (100 nM), the inhibition at 0.1 µM stood at 101%. The Ki in experiment [1] is 1.29 nM.

In general, % Inhibition refers to the relative decrease from the control value, in per cent. As to `CN1CCC(Nc2cc(S(=O)(=O)n3ccc4ccccc43)ccc2F)CC1` [Example 25, 1-[3-(1-Methylpiperidin-4-yl)amino-4-Fluoro]benzenesulfonylindole], in experiment [1] (100 nM), the “% Inhibition at 100 nM, radioligand binding data at 5ht6R (h)” value was 99.33%.
